The target in this experiment is T1, BRM (Homo sapiens, UniProt P51531).
T1 construct: In-Cell Western Screen of BRM Degradation in SW1573 Cells; endogenous in cells; host or cells: SW1573
Put plainly: In-cell Western screen of BRM degradation in SW1573 cells (Dmax and DC50). It counts as cell-based. Summed up: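 After adhering overnight, cells received compound for 18-20 hours. They were then washed in cold DPBS, fixed with 4% PFA for 20 min and permeabilized for 30 min. Blocking and fluorescent secondary staining followed before imaging.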

The mark [1] stands for this setting: target protein degradation, read-out: BRM DC50.
Where [2] appears, read: degradation of BRM, read-out: BRM DC50.
Where [3] appears, read: BRM degradation, SW1573 cells, Table 2D, read-out: **Dmax (%) (% degraded).
The mark [4] stands for this setting: BRM degradation, SW1573 cells, Table 2D, read-out: *DC50.
[5] abbreviates: BRM degradation, SW1573 cells, read-out: DC50.

Read-outs that look alike come from different tables or passages of the source.

The DC50 is the concentration giving 50% degradation. In general, Dmax refers to the largest share of the target that was removed.

T1 sequence (P51531 whole entry): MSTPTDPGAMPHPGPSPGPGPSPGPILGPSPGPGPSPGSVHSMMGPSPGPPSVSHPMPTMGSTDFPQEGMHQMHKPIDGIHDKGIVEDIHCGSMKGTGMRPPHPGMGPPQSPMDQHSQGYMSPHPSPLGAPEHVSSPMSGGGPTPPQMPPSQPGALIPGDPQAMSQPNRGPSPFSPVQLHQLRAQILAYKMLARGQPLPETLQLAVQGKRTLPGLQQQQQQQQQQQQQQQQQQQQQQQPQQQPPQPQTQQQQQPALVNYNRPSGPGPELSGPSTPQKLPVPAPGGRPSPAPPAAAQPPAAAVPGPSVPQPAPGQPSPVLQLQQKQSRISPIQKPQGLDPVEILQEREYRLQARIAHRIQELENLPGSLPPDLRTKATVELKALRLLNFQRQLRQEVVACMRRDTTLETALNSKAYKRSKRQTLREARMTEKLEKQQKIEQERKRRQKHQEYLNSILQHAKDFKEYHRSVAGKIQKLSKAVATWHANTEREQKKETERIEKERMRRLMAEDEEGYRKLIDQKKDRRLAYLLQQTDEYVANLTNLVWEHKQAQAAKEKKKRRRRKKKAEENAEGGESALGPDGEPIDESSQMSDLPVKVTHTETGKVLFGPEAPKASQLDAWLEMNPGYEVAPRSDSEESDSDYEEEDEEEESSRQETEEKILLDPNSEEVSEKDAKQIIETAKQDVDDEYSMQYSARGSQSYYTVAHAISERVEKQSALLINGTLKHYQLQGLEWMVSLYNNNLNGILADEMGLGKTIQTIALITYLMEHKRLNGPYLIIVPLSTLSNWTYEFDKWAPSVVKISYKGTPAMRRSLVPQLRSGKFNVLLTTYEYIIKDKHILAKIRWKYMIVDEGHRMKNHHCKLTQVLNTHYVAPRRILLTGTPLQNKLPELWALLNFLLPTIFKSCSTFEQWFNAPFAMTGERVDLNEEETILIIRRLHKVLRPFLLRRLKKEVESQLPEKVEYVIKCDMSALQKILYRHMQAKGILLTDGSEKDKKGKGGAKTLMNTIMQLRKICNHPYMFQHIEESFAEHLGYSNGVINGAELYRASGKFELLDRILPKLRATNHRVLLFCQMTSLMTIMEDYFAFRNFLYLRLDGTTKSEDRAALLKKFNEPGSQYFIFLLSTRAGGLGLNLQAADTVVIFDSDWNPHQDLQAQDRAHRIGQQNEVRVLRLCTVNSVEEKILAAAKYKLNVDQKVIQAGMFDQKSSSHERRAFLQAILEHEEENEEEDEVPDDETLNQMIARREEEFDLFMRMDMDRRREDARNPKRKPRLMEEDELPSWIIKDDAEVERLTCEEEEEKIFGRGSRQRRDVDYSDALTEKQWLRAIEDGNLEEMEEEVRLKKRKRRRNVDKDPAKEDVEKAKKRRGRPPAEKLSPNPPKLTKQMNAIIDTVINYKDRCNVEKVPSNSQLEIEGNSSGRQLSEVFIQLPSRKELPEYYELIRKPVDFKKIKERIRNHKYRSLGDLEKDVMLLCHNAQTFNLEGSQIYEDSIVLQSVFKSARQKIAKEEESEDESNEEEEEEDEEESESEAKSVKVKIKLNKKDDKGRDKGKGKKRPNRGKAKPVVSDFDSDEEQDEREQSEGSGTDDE

As for `Cc1ncsc1-c1ccc([C@H](C)NC(=O)[C@@H]2C[C@@H](O)CN2C(=O)[C@H](c2cc(N3CCC(OC4CCN(C[C@H]5C[C@H](Oc6cc(N7C8CCC7CN(c7cc(-c9ccccc9O)nnc7N)C8)ccn6)C5)CC4)CC3)no2)C(C)C)cn1` [compound 475, (2S,4R)-1-((2S)-2-(3-(4-((1-(((1r,3r)-3-((4-(3-(3-amino-6-(2-hydroxyphenyl)pyridazin-4-yl)-3,8-diazabicyclo[3.2.1]octan-8-yl)pyridin-2-yl)oxy)cyclobutyl)methyl)piperidin-4-yl)oxy)piperidin-1-yl)isoxazol-5-yl)-3-methylbutanoyl)-4-hydroxy-N-((S)-1-(6-(4-methylthiazol-5-yl)pyridin-3-yl)ethyl)pyrrolidine-2-carboxamide], the DC50 under setting [1] is greater than 0.03 µM.
As for `CC(C)[C@H](C(=O)N1C[C@H](O)C[C@H]1C(=O)N[C@@H](C)c1ccc(-c2c(F)cnn2C)cc1)c1cc(OCCN2CCN(CCOc3cc(N4C5CCC4CN(c4cc(-c6ccccc6O)nnc4N)C5)ccn3)CC2)no1` [compound 409, (2S,4R)-1-((2S)-2-(3-(2-(4-(2-((4-(3-(3-amino-6-(2-hydroxyphenyl)pyridazin-4-yl)-3,8-diazabicyclo[3.2.1]octan-8-yl)pyridin-2-yl)oxy)ethyl)piperazin-1-yl)ethoxy)isoxazol-5-yl)-3-methylbutanoyl)-N-((S)-1-(4-(4-fluoro-1-methyl-1H-pyrazol-5-yl)phenyl)ethyl)-4-hydroxypyrrolidine-2-carboxamide], under setting [2], the DC50 is greater than 0.03 µM.
Turning to `Cc1nccn1-c1ccc([C@H](C)NC(=O)[C@@H]2C[C@@H](O)CN2C(=O)[C@H](c2cc(N3CCN(C[C@H]4C[C@H](Oc5cc(N6C7CCC6CN(c6cc(-c8ccccc8O)nnc6N)C7)ccn5)C4)CC3)no2)C(C)C)cc1` [compound 575, (2S,4R)-1-((2S)-2-(3-(4-(((1r,3S)-3-((4-(3-(3-amino-6-(2-hydroxyphenyl)pyridazin-4-yl)-3,8-diazabicyclo[3.2.1]octan-8-yl)pyridin-2-yl)oxy)cyclobutyl)methyl)piperazin-1-yl)isoxazol-5-yl)-3-methylbutanoyl)-4-hydroxy-N-((S)-1-(4-(2-methyl-1H-imidazol-1-yl)phenyl)ethyl)pyrrolidine-2-carboxamide], the Dmax under setting [3] is 50 to 75%. For the same compound, under setting [4], the 50% degradation concentration (DC50) was in the range of 0.01 to 0.03 µM.
In the case of `Cc1ncsc1-c1ccc([C@@H](C)NC(=O)[C@@H]2C[C@@H](O)CN2C(=O)[C@H](c2cc(OCCN3CCC(O[C@H]4C[C@H](Oc5cc(N6C7CCC6CN(c6cc(-c8ccccc8O)nnc6N)C7)ccn5)C4)CC3)no2)C(C)C)nn1` [compound 442, (2S,4R)-1-((2S)-2-(3-(2-(4-((1r,3S)-3-((4-(3-(3-amino-6-(2-hydroxyphenyl)pyridazin-4-yl)-3,8-diazabicyclo[3.2.1]octan-8-yl)pyridin-2-yl)oxy)cyclobutoxy)piperidin-1-yl)ethoxy)isoxazol-5-yl)-3-methylbutanoyl)-4-hydroxy-N-((R)-1-(6-(4-methylthiazol-5-yl)pyridazin-3-yl)ethyl)pyrrolidine-2-carboxamide], under setting [2], the DC50 is greater than 0.03 µM.
Take `Cc1ncsc1-c1ccc([C@H](C)NC(=O)[C@@H]2C[C@@H](O)CN2C(=O)[C@@H](c2cc(OCCC#Cc3ccc(OC4CC(Oc5cc(N6C7CC[C@@H]6CN(c6cc(-c8ccccc8O)nnc6N)C7)ccn5)C4)cn3)no2)C(C)C)cc1` (stereo partly drawn) [compound 227, (2S,4R)-1-((2R)-2-(3-((4-(5-((1r,3r)-3-((4-(3-(3-amino-6-(2-hydroxyphenyl)pyridazin-4-yl)-3,8-diazabicyclo[3.2.1]octan-8-yl)pyridin-2-yl)oxy)cyclobutoxy)pyridin-2-yl)but-3-yn-1-yl)oxy)isoxazol-5-yl)-3-methylbutanoyl)-4-hydroxy-N-((S)-1-(4-(4-methylthiazol-5-yl)phenyl)ethyl)pyrrolidine-2-carboxamide]: under setting [5], the DC50 was less than 0.0025 µM. Also, under “BRM degradation, SW1573 cells, tested at the top concentration of between 0.3 and 10 μM”, the “Dmax (%) (% degraded)” value is recorded as “A (A > 75)”.
Turning to `Cc1ncsc1-c1ccc([C@H](C)NC(=O)[C@@H]2C[C@@H](O)CN2C(=O)[C@@H](c2cc(OCCC3CCN(C[C@H]4C[C@H](N5CCC(C(C)n6cc(-c7cc(-c8ccccc8O)nnc7N)cn6)CC5)C4)CC3)no2)C(C)C)cc1` (stereo partly drawn) [compound 599, (2S,4R)-1-((2R)-2-(3-(2-(1-(((1r,3R)-3-(4-(1-(4-(3-amino-6-(2-hydroxyphenyl)pyridazin-4-yl)-1H-pyrazol-1-yl)ethyl)piperidin-1-yl)cyclobutyl)methyl)piperidin-4-yl)ethoxy)isoxazol-5-yl)-3-methylbutanoyl)-4-hydroxy-N-((S)-1-(4-(4-methylthiazol-5-yl)phenyl)ethyl)pyrrolidine-2-carboxamide], under setting [3], the Dmax is greater than 75%. The 50% degradation concentration (DC50) under setting [4] is less than 0.0025 µM.
Regarding `Cc1ncsc1-c1ccc([C@H](CCCC(=O)O)NC(=O)[C@@H]2C[C@@H](O)CN2C(=O)C(c2cc(OCCN3CCC(O[C@H]4C[C@H](Oc5cc(N6C7CCC6CN(c6cc(-c8ccccc8O)nnc6N)C7)ccn5)C4)CC3)no2)C(C)C)cc1` (stereo partly drawn) [compound 687, (5S)-5-((2S,4R)-1-(2-(3-(2-(4-((1r,3r)-3-((4-(3-(3-amino-6-(2-hydroxyphenyl)pyridazin-4-yl)-3,8-diazabicyclo[3.2.1]octan-8-yl)pyridin-2-yl)oxy)cyclobutoxy)piperidin-1-yl)ethoxy)isoxazol-5-yl)-3-methylbutanoyl)-4-hydroxypyrrolidine-2-carboxamido)-5-(4-(4-methylthiazol-5-yl)phenyl)pentanoic acid], the 50% degradation concentration (DC50) under setting [5] is greater than 0.03 µM.
In the case of `Cc1ncsc1-c1ccc([C@H](C)NC(=O)[C@@H]2C[C@@H](O)CN2C(=O)[C@@H](c2cc(CCCOCCOCCOCCn3cc(-c4cc(-c5ccccc5O)nnc4N)cn3)no2)C(C)C)cc1` [compound 110, (2S,4R)-1-((R)-2-(3-(3-(2-(2-(2-(4-(3-amino-6-(2-hydroxyphenyl)pyridazin-4-yl)-1H-pyrazol-1-yl)ethoxy)ethoxy)ethoxy)propyl)isoxazol-5-yl)-3-methylbutanoyl)-4-hydroxy-N-((S)-1-(4-(4-methylthiazol-5-yl)phenyl)ethyl)pyrrolidine-2-carboxamide], under setting [5], the DC50 was less than 0.0025 µM. Besides, the Dmax (BRM degradation, SW1573 cells, when tested at the top concentration of between 0.3 and 10 μM, read-out: Dmax (%) (% degraded)) is greater than 75%.
Turning to `Cc1ncsc1-c1ccc([C@H](C)NC(=O)[C@@H]2C[C@@H](O)CN2C(=O)[C@H](c2cc(OCCn3cc(C(C)n4cc(-c5cc(-c6ccccc6O)nnc5N)cn4)ccc3=O)no2)C(C)C)cc1` (stereo partly drawn) [compound 157, (2S,4R)-1-((2S)-2-(3-(2-(5-(1-(4-(3-amino-6-(2-hydroxyphenyl)pyridazin-4-yl)-1H-pyrazol-1-yl)ethyl)-2-oxopyridin-1(2H)-yl)ethoxy)isoxazol-5-yl)-3-methylbutanoyl)-4-hydroxy-N-((S)-1-(4-(4-methylthiazol-5-yl)phenyl)ethyl)pyrrolidine-2-carboxamide], the DC50 under setting [5] lay within 0.01 to 0.03 µM. For the same compound, the Dmax (BRM degradation, SW1573 cells, tested at the top concentration of between 0.3 and 10 μM, read-out: Dmax (%) (% degraded)) is greater than 75%.
With `Cc1ncsc1-c1ccc([C@H](C)NC(=O)[C@@H]2C[C@@H](O)CN2C(=O)[C@H](c2cc(OCCC3CCN(CCOc4cc(N5C6CCC5CN(c5cc(-c7ccccc7O)nnc5N)C6)ccn4)CC3)no2)C(C)C)cc1` [compound 510, (2S,4R)-1-((2S)-2-(3-(2-(1-(2-((4-(3-(3-amino-6-(2-hydroxyphenyl)pyridazin-4-yl)-3,8-diazabicyclo[3.2.1]octan-8-yl)pyridin-2-yl)oxy)ethyl)piperidin-4-yl)ethoxy)isoxazol-5-yl)-3-methylbutanoyl)-4-hydroxy-N-((S)-1-(4-(4-methylthiazol-5-yl)phenyl)ethyl)pyrrolidine-2-carboxamide], for the setting “BRM degradation, read-out: BRM DC50”, the DC50 is less than 0.0025 µM. Further, the Dmax (SW1573, % degraded, when tested at the top concentration of between 0.3 and 10 μM, read-out: BRM Dmax (%)) was greater than 75%.
`Cc1ncsc1-c1ccc([C@H](C)NC(=O)[C@@H]2C[C@@H](O)CN2C(=O)[C@H](c2cc(OC[C@@H]3C[C@H]3c3ccc(O[C@H]4C[C@H](Oc5cc(N6C7CCC6CN(c6cc(-c8ccccc8O)nnc6N)C7)ccn5)C4)cn3)no2)C(C)C)cn1` [compound 479, (2S,4R)-1-((2S)-2-(3-(((1R,2R)-2-(5-((1r,3R)-3-((4-(3-(3-amino-6-(2-hydroxyphenyl)pyridazin-4-yl)-3,8-diazabicyclo[3.2.1]octan-8-yl)pyridin-2-yl)oxy)cyclobutoxy)pyridin-2-yl)cyclopropyl)methoxy)isoxazol-5-yl)-3-methylbutanoyl)-4-hydroxy-N-((S)-1-(6-(4-methylthiazol-5-yl)pyridin-3-yl)ethyl)pyrrolidine-2-carboxamide]: under setting [1], the DC50 is greater than 0.03 µM.
As for `Cc1ncsc1-c1ccc([C@H](C)NC(=O)[C@@H]2C[C@@H](O)CN2C(=O)[C@@H](c2cc(OCC[C@@H]3CCN(C[C@H]4C[C@H](Oc5cc(N6C7CCC6CN(c6cc(-c8ccccc8O)nnc6N)C7)ccn5)C4)C[C@H]3C)no2)C(C)C)cc1` (racemic) [compound 546, (2S,4R)-1-((2R)-2-(3-(2-((3S,4S)-1-(((1r,3S)-3-((4-(3-(3-amino-6-(2-hydroxyphenyl)pyridazin-4-yl)-3,8-diazabicyclo[3.2.1]octan-8-yl)pyridin-2-yl)oxy)cyclobutyl)methyl)-3-methylpiperidin-4-yl)ethoxy)isoxazol-5-yl)-3-methylbutanoyl)-4-hydroxy-N-((S)-1-(4-(4-methylthiazol-5-yl)phenyl)ethyl)pyrrolidine-2-carboxamide], the Dmax under setting [3] is greater than 75%. The DC50 under setting [4] is less than 0.0025 µM.

Values taken from patent publication US12539292B2, “BRM targeting compounds and associated methods of use” (Arvinas Operations, Inc., priority 2018, dated 2026).
